The record followed here is patent publication US8455649B2, “Insecticidal substituted azinyl derivatives” (Dow AgroSciences, LLC, priority 2007, dated 2013).

Test [1] concerns Beet Armyworm (Spodoptera exigua). Put plainly: Insecticidal diet-surface test for beet armyworm. The settings on record: 120 h, second-instar larvae on treated diet, 50 μg/cm^2 on diet surface, 5 days after treatment, 8 insects per treatment, read-out: LAPHEG AVG % Mortality (50 μg/cm^2). The format is in vivo. The method in brief: (§1)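 Second-instar larvae placed on lepidopteran diet surface-treated with 50 μL of 2000 ppm compound in 9 acetone:1 water (stated as 50 μg/cm^2), eight wells per species. Held 5 days at 25° C, 50-55% RH, 16:8 h light:dark; mortality of 8 larvae scored as percent control.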

Test [2] has as its system Corn Earworm (Helicoverpa zea). The test can be described thus: Insecticidal diet-surface test for corn earworm. The format is in vivo. The settings on record: 120 h, second-instar larvae on treated diet, 50 μg/cm^2 on diet surface, 5 days after treatment, 8 insects per treatment, read-out: HELIZE AVG % Mortality (50 μg/cm^2). A digest of the protocol: as §1

In the case of `CN(C(=O)Nc1nc(OCC(F)(F)F)cc(OCC(F)(F)F)c1F)c1ccc(C(F)(F)F)cc1` [Compound 184], the mortality at 50 µg/cm2 in test [1] and in test [2] was 100% in each case.
In the case of `CN(C(=O)Nc1nc(OCC(F)(F)F)cc(OCC(F)(F)F)c1F)c1ccc(OC(F)(F)F)cc1` [Compound 185], the mortality at 50 µg/cm2 in test [1] and in test [2] was 100% each time.
